#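 48-hour exposure; five concentrations; linearly interpolated endpoints. GI50 is the concentration that inhibits growth by half. TGI denotes the concentration required for complete inhibition of growth.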
# Experiments:
# Assay in all cases: NCI anticancer screen, dose series, 48 h
# [1] = system: LOX IMVI melanoma
# [2] = system: SF-539 CNS
# [3] = system: NCI-H460 lung
# [4] = system: 786-0 renal
# [5] = system: UO-31 renal
# [6] = system: HCT-15 colon
# [7] = system: MDA-MB-435
# [8] = system: SF-268 CNS
# [9] = system: PC-3 prostate
# [10] = system: OVCAR-8 ovarian
# [11] = system: SN12C renal
# [12] = system: MDA-MB-231 breast
# [13] = system: RPMI-8226 leukemia
# [14] = system: SK-MEL-2 melanoma
# [15] = system: NCI-H522 lung
# [16] = system: UACC-62 melanoma
# [17] = system: ACHN renal
# [18] = system: HL-60(TB) leukemia
# [19] = system: HOP-92 NSCLC
# [20] = system: CCRF-CEM leukemia
# [21] = system: HT29 colon
# [22] = system: SK-MEL-5 melanoma
# [23] = system: SF-295 CNS
# [24] = system: SK-OV-3 ovarian
# [25] = system: KM12 colon
# [26] = system: OVCAR-3 ovarian
# [27] = system: A549 NSCLC
# [28] = system: DU-145 prostate
# [29] = system: A498 renal
# [30] = system: HOP-62 NSCLC
# [31] = system: SNB-19 CNS
# [32] = system: HCC-2998 colon
# [33] = system: MOLT-4 leukemia
# [34] = system: COLO 205 colon
# [35] = system: SW-620 colon
# [36] = system: UACC-257 melanoma
# [37] = system: MALME-3M melanoma
# [38] = system: OVCAR-5 ovarian
# [39] = system: RXF 393 renal
# [40] = system: HS 578T breast
# [41] = system: EKVX NSCLC
# [42] = system: U251 CNS
# [43] = system: SNB-75 CNS
# [44] = system: OVCAR-4 ovarian
# [45] = system: TK-10 renal
# [46] = system: K-562 leukemia
# [47] = system: IGROV1 ovarian
# [48] = system: HCT-116 colon
# [49] = system: CAKI-1 renal
# [50] = system: NCI/ADR-RES ovarian
# [51] = system: NCI-H23 lung
# [52] = system: MCF7 breast
# [53] = system: SK-MEL-28 melanoma
# [54] = system: NCI-H226 lung
# [55] = system: M14 melanoma
# [56] = system: BT-549 breast
# [57] = system: T-47D breast
compound,measurement,setting,value
CN(c1ccc(NC(=O)Nc2ccc(OC(F)(F)F)cc2)cc1)c1ccnc(Nc2cccc(S(N)(=O)=O)c2)n1,GI50,[1],0.725 µM
same,TGI,[1],3.97 µM
same,GI50,[2],0.591 µM
same,TGI,[2],5.47 µM
same,GI50,[3],0.428 µM
same,TGI,[3],4.51 µM
same,GI50,[4],5.25 µM
same,TGI,[4],12 µM
same,GI50,[5],4.63 µM
same,TGI,[5],11.9 µM
same,GI50,[6],5.34 µM
same,TGI,[6],15.3 µM
same,GI50,[7],3.15 µM
same,TGI,[7],6.68 µM
same,GI50,[8],2.34 µM
same,TGI,[8],6.74 µM
same,GI50,[9],1.45 µM
same,TGI,[9],5.72 µM
same,GI50,[10],3.07 µM
same,TGI,[10],7.17 µM
same,GI50,[11],2.27 µM
same,TGI,[11],11.5 µM
same,GI50,[12],4.92 µM
same,TGI,[12],15.1 µM
same,GI50,[13],2.7 µM
same,TGI,[13],10.1 µM
same,GI50,[14],4.57 µM
same,TGI,[14],9.7 µM
same,GI50,[15],3.41 µM
same,TGI,[15],7.36 µM
same,GI50,[16],3.02 µM
same,TGI,[16],7.13 µM
same,GI50,[17],5.42 µM
same,TGI,[17],15.5 µM
same,GI50,[18],2.7 µM
same,TGI,[18],6.36 µM
same,GI50,[19],2.36 µM
same,TGI,[19],6.95 µM
same,GI50,[20],0.412 µM
same,TGI,[20],25 µM
same,GI50,[21],1.35 µM
same,TGI,[21],5.95 µM
same,GI50,[22],3.96 µM
same,TGI,[22],7.56 µM
same,GI50,[23],0.861 µM
same,TGI,[23],6.48 µM
same,GI50,[24],4.65 µM
same,TGI,[24],8.96 µM
same,GI50,[25],0.0157 µM
same,TGI,[25],3.99 µM
same,GI50,[26],3.05 µM
same,TGI,[26],6.69 µM
same,GI50,[27],2.68 µM
same,TGI,[27],9.83 µM
same,GI50,[28],3.26 µM
same,TGI,[28],6.46 µM
same,GI50,[29],1.15 µM
same,TGI,[29],3.37 µM
same,GI50,[30],3.71 µM
same,TGI,[30],8.1 µM
same,GI50,[31],5.49 µM
same,TGI,[31],14.3 µM
same,GI50,[32],5.11 µM
same,TGI,[32],9.27 µM
same,GI50,[33],1.11 µM
same,TGI,[33],4.16 µM
same,GI50,[34],0.317 µM
same,TGI,[34],3.5 µM
same,GI50,[35],2.93 µM
same,TGI,[35],6.62 µM
same,GI50,[36],3.77 µM
same,TGI,[36],9.14 µM
same,GI50,[37],3.84 µM
same,TGI,[37],8.34 µM
same,GI50,[38],5.47 µM
same,TGI,[38],13.7 µM
same,GI50,[39],2.13 µM
same,TGI,[39],6.04 µM
same,GI50,[40],4.14 µM
same,TGI,[40],17 µM
same,GI50,[41],5.33 µM
same,TGI,[41],12.4 µM
same,GI50,[42],3.07 µM
same,TGI,[42],6.64 µM
same,GI50,[43],2.38 µM
same,TGI,[43],6.61 µM
same,GI50,[44],3.06 µM
same,TGI,[44],8.03 µM
same,GI50,[45],6.21 µM
same,TGI,[45],13 µM
same,GI50,[46],0.0874 µM
same,TGI,[46],4.31 µM
same,GI50,[47],1.73 µM
same,TGI,[47],7.45 µM
same,GI50,[48],1.73 µM
same,TGI,[48],5.7 µM
same,GI50,[49],6.45 µM
same,TGI,[49],20.8 µM
same,GI50,[50],12.6 µM
same,TGI,[50],25 µM
same,GI50,[51],2.15 µM
same,TGI,[51],6.25 µM
same,GI50,[52],1.06 µM
same,TGI,[52],5.56 µM
same,GI50,[53],3.42 µM
same,TGI,[53],7 µM
same,GI50,[54],3.28 µM
same,TGI,[54],9.51 µM
same,GI50,[55],3.39 µM
same,TGI,[55],8.03 µM
same,GI50,[56],4.31 µM
same,TGI,[56],8.3 µM
same,GI50,[57],3.51 µM
same,TGI,[57],9.35 µM

# Source: PubChem BioAssay (NCI)
